Legend:
human DHODH = target: T1, human DHODH (Homo sapiens, UniProt Q02127); test: DHODH enzymatic assay (DCIP absorbance, end-point); format: biochemical; conditions: purified human DHODH, DCIP as final electron acceptor, end-point mode; read-out: hDHODH IC50
T1 construct: purchased Proteros PR-0044
Method in brief: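 Purified human DHODH; end-point absorbance of DCIP reduction as terminal electron acceptor. Reaction started with substrate mix of 20 mM DHO, 5 mM CoQ6, 1 mM DCIP (substrate-solution concentrations) in […] pH 7.5, 150 mM NaCl, 0.5 mM EDTA, 0.1% Triton X-100.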

MOLM-13 cells = test: MOLM-13 cellular assay (CellTiter-Glo cell viability); format: cell-based; conditions: 72 hours exposure, cell viability by CellTiter-Glo
Method in brief: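 Cells seeded at 5,000/well and exposed to graded compound concentrations for 72 h at 37° C, 5% CO2 immediately after seeding. Viability read by CellTiter-Glo luminescence.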

T1 sequence (Q02127 whole entry): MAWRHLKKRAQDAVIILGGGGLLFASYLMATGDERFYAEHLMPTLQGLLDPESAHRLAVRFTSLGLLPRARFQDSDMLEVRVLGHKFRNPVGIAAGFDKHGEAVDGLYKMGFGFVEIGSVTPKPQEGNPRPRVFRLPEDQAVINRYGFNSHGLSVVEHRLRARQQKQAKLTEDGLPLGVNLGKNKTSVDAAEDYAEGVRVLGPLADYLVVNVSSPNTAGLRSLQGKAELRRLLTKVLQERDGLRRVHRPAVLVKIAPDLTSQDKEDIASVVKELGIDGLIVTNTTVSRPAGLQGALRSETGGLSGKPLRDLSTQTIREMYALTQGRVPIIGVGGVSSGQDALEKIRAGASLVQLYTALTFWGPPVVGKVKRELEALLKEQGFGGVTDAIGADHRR

Row | SMILES | IC50 (human DHODH) | IC50 (MOLM-13 cells; Homo sapiens, MOLM-13, 72 h) | IC50 (MOLM-13 cells)
1 | C=C(C)C1CN(c2cc(C)ccc2F)C(=O)c2cc(F)c(-n3nc(CO)n(CC)c3=O)cc21 (racemic) [Example 38, Racemic-6-(4-ethyl-3-(hydroxymethyl)-5-oxo-4,5-dihydro-1H-1,2,4-triazol-1-yl)-7-fluoro-2-(2-fluoro-5-methylphenyl)-4-(prop-1-en-2-yl)-3,4-dihydroisoquinolin-1(2H)-one] | 30 nM | 36.3 nM | –
2 | C=C(C)[C@H]1CN(c2c(C)cnc(OC)c2C)C(=O)c2cc(F)c(-n3nc(CO)n(CC)c3=O)cc21 (single isomer, unassigned; atropisomer 1) [Example 55, Atropisomer 1, (R *)-6-(4-Ethyl-3-(hydroxymethyl)-5-oxo-4,5-dihydro-1H-1,2,4-triazol-1-yl)-7-fluoro-2-(2-methoxy-3,5-dimethylpyridin-4-yl)-4-(prop-1-en-2-yl)-3,4-dihydroisoquinolin-1(2H)-one] | > 100 nM | – | 1160 nM
3 | C=C(C)C1CN(c2cc(C)ccc2F)C(=O)c2cc(F)c(-n3nc(CO)n(CC)c3=O)cc21 (single isomer, unassigned) [Example 40, (R *)-6-(4-Ethyl-3-(hydroxymethyl)-5-oxo-4,5-dihydro-1H-1,2,4-triazol-1-yl)-7-fluoro-2-(2-fluoro-5-methylphenyl)-4-(prop-1-en-2-yl)-3,4-dihydroisoquinolin-1(2H)-one] | 40 nM | – | 52.9 nM
4 | C=C(C)[C@@H]1CN(c2c(C)cnc(OC)c2C)C(=O)c2cc(F)c(-n3nc(CO)n(CC)c3=O)cc21 (single isomer, unassigned; atropisomer 1) [Example 54, Atropisomer 1, (S*)-6-(4-Ethyl-3-(hydroxymethyl)-5-oxo-4,5-dihydro-1H-1,2,4-triazol-1-yl)-7-fluoro-2-(2-methoxy-3,5-dimethylpyridin-4-yl)-4-(prop-1-en-2-yl)-3,4-dihydroisoquinolin-1 (2H)-one] | 20 nM | – | 2.2 nM
5 | CCn1c(CO)nn(-c2cc3c(cc2F)C(=O)N(c2ccccc2Cl)CC3C(C)C)c1=O (single isomer, unassigned) [Example 37, (R *)-2-(2-Chlorophenyl)-6-(4-ethyl-3-(hydroxymethyl)-5-oxo-4,5-dihydro-1H-1,2,4-triazol-1-yl)-7-fluoro-4-isopropyl-3,4-dihydroisoquinolin-1(2H)-one] | 20 nM | – | 15.5 nM
6 | CC[C@H](C)N1CN(c2c(F)cccc2Cl)C(=O)c2cc(F)c(-n3nc(CO)n(CC)c3=O)cc21 [Example 16, (S)-1-(sec-Butyl)-3-(2-chloro-6-fluorophenyl)-7-(4-ethyl-3-(hydroxymethyl)-5-oxo-4,5-dihydro-1H-1,2,4-triazol-1-yl)-6-fluoro-2,3-dihydroquinazolin-4(1H)-one] | 0.3 nM | < 1.69 nM | –
7 | CCC[C@H](C)N1CN(c2c(F)cccc2Cl)C(=O)c2cc(F)c(-n3nc(CO)n(CC)c3=O)cc21 [Example 15, (S)-3-(2-Chloro-6-fluorophenyl)-7-(4-ethyl-3-(hydroxymethyl)-5-oxo-4,5-dihydro-1H-1,2,4-triazol-1-yl)-6-fluoro-1-(pentan-2-yl)-2,3-dihydroquinazolin-4(1H)-one] | 0.3 nM | < 1.69 nM | –
8 | C=C(C)C1CN(c2c(F)cccc2Cl)C(=O)c2cc(F)c(-n3nc(CO)n(CC)c3=O)cc21 (single isomer, unassigned) [Example 68, (R*)-2-(2-Chloro-6-fluorophenyl)-6-(4-ethyl-3-(hydroxymethyl)-5-oxo-4,5-dihydro-1H-1,2,4-triazol-1-yl)-7-fluoro-4-(prop-1-en-2-yl)-3,4-dihydroisoquinolin-1(2H)-one] | 2 nM | – | 4.66 nM
9 | CCn1c(CO)nn(-c2ccc3c(c2)C(C(C)C)CN(c2cccc(F)c2)C3=O)c1=O (racemic) [Example 10, Racemic-6-(4-Ethyl-3-(hydroxymethyl)-5-oxo-4,5-dihydro-1H-1,2,4-triazol-1-yl)-2-(3-fluorophenyl)-4-isopropyl-3,4-dihydroisoquinolin-1(2H)-one] | 190 nM | > 3 nM | –
10 | CCn1c(CO)nn(-c2cc3c(cc2F)C(=O)N(c2c(C)cnc(OC)c2Cl)CC3C(C)C)c1=O (single isomer, unassigned) [Example 67, (R *)-2-(3-Chloro-2-methoxy-5-methylpyridin-4-yl)-6-(4-ethyl-3-(hydroxymethyl)-5-oxo-4,5-dihydro-1H-1,2,4-triazol-1-yl)-7-fluoro-4-isopropyl-3,4-dihydroisoquinolin-1(2H)-one] | > 100 nM | – | 351 nM

Now from value to compound:

Row | IC50 (human DHODH) | IC50 (MOLM-13 cells; Homo sapiens, MOLM-13, 72 h) | IC50 (MOLM-13 cells) | SMILES
11 | > 100 nM | – | 26.8 nM | C=C(C)[C@@H]1CN(c2c(C)cc(C)nc2Cl)C(=O)c2cc(F)c(-n3nc(CO)n(CC)c3=O)cc21 (single isomer, unassigned; atropisomer 1) [Example 60, Atropisomer 1, (S*)-2-(2-Chloro-4,6-dimethylpyridin-3-yl)-6-(4-ethyl-3-(hydroxymethyl)-5-oxo-4,5-dihydro-1H-1,2,4-triazol-1-yl)-7-fluoro-4-(prop-1-en-2-yl)-3,4-dihydroisoquinolin-1(2H)-one]
12 | 4 nM | – | 2.93 nM | C=C(C)[C@@H]1CN(c2c(C)cc(C)nc2Cl)C(=O)c2cc(F)c(-n3nc(CO)n(CC)c3=O)cc21 (single isomer, unassigned; atropisomer 1) [Example 58, Atropisomer 1, (S*)-2-(2-Chloro-4,6-dimethylpyridin-3-yl)-6-(4-ethyl-3-(hydroxymethyl)-5-oxo-4,5-dihydro-1H-1,2,4-triazol-1-yl)-7-fluoro-4-(prop-1-en-2-yl)-3,4-dihydroisoquinolin-1(2H)-one]
13 | 30 nM | 48.1 nM | – | CCn1c(CO)nn(-c2cc3c(cc2F)C(=O)N(c2c(F)cncc2C#N)CN3C(C)C)c1=O [Example 27, 4-(7-(4-Ethyl-3-(hydroxymethyl)-5-oxo-4,5-dihydro-1H-1,2,4-triazol-1-yl)-6-fluoro-1-isopropyl-4-oxo-1,4-dihydroquinazolin-3(2H)-yl)-5-fluoronicotinonitrile]
14 | 5 nM | 10.2 nM | – | CCCCN1CN(c2c(F)cccc2Cl)C(=O)c2cc(F)c(-n3nc(CO)n(CC)c3=O)cc21 [Example 20, 1-Butyl-3-(2-chloro-6-fluorophenyl)-7-(4-ethyl-3-(hydroxymethyl)-5-oxo-4,5-dihydro-1H-1,2,4-triazol-1-yl)-6-fluoro-2,3-dihydroquinazolin-4(1H)-one]
15 | 2 nM | – | 2.96 nM | CCn1c(CO)nn(-c2cc3c(cc2F)C(=O)N(c2c(C)cnc(OC)c2Cl)CC3C(C)C)c1=O (single isomer, unassigned) [Example 66, (S*)-2-(3-Chloro-2-methoxy-5-methylpyridin-4-yl)-6-(4-ethyl-3-(hydroxymethyl)-5-oxo-4,5-dihydro-1H-1,2,4-triazol-1-yl)-7-fluoro-4-isopropyl-3,4-dihydroisoquinolin-1(2H)-one]
16 | 57 nM | 50 nM | – | CCn1c(CO)nn(-c2nc3c(cc2F)C(=O)N(c2c(F)cccc2Cl)CN3C2CCOCC2)c1=O [Example 6, 3-(2-Chloro-6-fluorophenyl)-7-(4-ethyl-3-(hydroxymethyl)-5-oxo-4,5-dihydro-1H-1,2,4-triazol-1-yl)-6-fluoro-1-(tetrahydro-2H-pyran-4-yl)-2,3-dihydropyrido[2,3-d]pyrimidin-4(1H)-one]
